According to the METLIN SMRT retention time set (Domingo-Almenara et al. 2019):

Test: gradient 5% acetonitrile 3 min, to 50% in 2 min, to 85% in 15 min, held 3 min, 100 µL/min
Conditions: column: Zorbax Extend-C18 2.1 x 50 mm; eluents: water / acetonitrile, 0.1% formic acid
Outline: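 Retention time was recorded from adduct peaks, which were picked computationally and each inspected manually. Pure standards ran in mixtures of ~100 molecules on HPLC coupled to a quadrupole time-of-flight mass spectrometer, in positive and negative ionization mode, through a Zorbax Extend-C18 column (2.1 × 50 mm, 1.8 μm) at 100 μL/min. Eluents were water and acetonitrile, each with 0.1% formic acid.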

SMILES	RP-LC retention time
CCCNC(=O)C1CCCN(c2ccc(SCC(=O)Nc3cc(F)ccc3C)nn2)C1 (stereo unspecified)	700 s
CCc1nnc(-c2ccc(NC(=O)CCc3ccc(OC)cc3)cc2)o1	795 s
NS(=O)(=O)c1cccnc1Nc1cccc(Cl)c1	855 s
Cc1ccc(OCC(=O)NC2(c3nc(-c4cccnc4)no3)CCCCC2)cc1	1010 s
O=C(c1ccc(=O)n(CCN2CCOCC2)c1)N1CCN(c2ccccc2F)CC1	613 s
CCCC(C)C(=O)NCCc1nc2cccnc2n1C (stereo unspecified)	593 s
Cc1ccn2cc(C(=O)NCc3cc(F)cc(F)c3)nc2c1	678 s
Cc1noc(CNC(=O)Cc2ccc(F)cc2)n1	643 s
O=C1CCSc2c1cccc2C(=O)N1CCN(c2ccc(F)cc2)CC1	882 s
Cc1csc(NC(=O)C2CCN(S(=O)(=O)c3cc(-c4noc(C)n4)ccc3Cl)CC2)n1	899 s
Cc1ccc(-c2csc(NC(=O)Cc3csc(COc4ccc(Cl)c(C)c4)n3)n2)cc1	1310 s
Cc1oc(C2CCN(S(=O)(=O)c3cccc(C#N)c3)CC2)nc1C(=O)N1CCOCC1	734 s
CN1CCCC1c1nc(C2CN(C(=O)c3cccn3C)C2)no1 (stereo unspecified)	548 s
COc1cc(NS(=O)(=O)c2ccc(NC(=O)c3ccc(Cl)cc3)cc2)nc(OC)n1	868 s
CCN(CC)S(=O)(=O)c1ccc2c(c1)N(CC(=O)N(C)Cc1ccco1)C(=O)C1CCCCN21 (stereo unspecified)	959 s
O=C(NCCc1c[nH]c2ccccc12)c1csc(NS(=O)(=O)c2cccs2)n1	740 s
COC[C@@H]1CN(S(=O)(=O)c2ccc(F)cc2)C[C@H]1c1ccccn1	745 s
Cc1ccc(C(=O)NCCc2c[nH]c3ccc(F)cc23)cc1	841 s
O=C(Nc1nc(-c2cccs2)cs1)c1cccc([N+](=O)[O-])c1	936 s
COCc1cc(=O)n2c(n1)N(Cc1c(C)noc1C)CC2	626 s
O=C(NCc1cscn1)C1CCN(S(=O)(=O)c2cccc3nsnc23)CC1	659 s
Cc1ccc(Oc2nccnc2SCC(=O)NCCC2=CCCCC2)cc1	1090 s
Cc1nc(-c2ccc(C(=O)NCc3cccnc3)cc2)cs1	612 s

SMILES	RP-LC retention time
CCc1nc2cccnc2n1CCN1CCN(C(=O)Nc2ccc(C)cc2Cl)CC1	616 s
COc1cc(=O)n2c(c1C(=O)Nc1cccc3c1CCCC3)CCCC2	762 s
Cn1c(CNC(=O)CCc2cc3ccccc3[nH]c2=O)nc2ccccc21	601 s
CCc1noc(NC(C)=O)c1-c1ccc(C)c(S(=O)(=O)N(C)c2ccc(C)cc2)c1	861 s
CCCNC(=O)NC1CCN(c2nc3ccccc3n(C)c2=O)CC1	715 s
Cn1ncc2c3ccccc3n(CCCC(=O)NCc3ccccc3)c2c1=O	810 s
O=C(CCc1ccccc1)Nc1nnc(SCC(=O)c2ccccc2)s1	892 s
Cc1cc(NS(=O)(=O)c2cc3n(c2)CCN(C)C3=O)ccc1F	698 s
CCc1nc(OCC(=O)Nc2ccc(Br)cc2)c2ccccc2n1	874 s
CC1CCCN(c2nc(C(=O)NC(C)C)cs2)C1 (stereo unspecified)	1020 s
CCOC(=O)c1c(C)oc2nc(C)nc(Nc3ccc4c(c3)OCCO4)c12	1200 s
CN1CCN(C(=O)CN2C(=O)CCCc3cc(S(=O)(=O)N4CCCCCC4)ccc32)CC1	632 s
Cc1cccc(NS(=O)(=O)c2cn(CC(C)C)c3ncccc23)c1C	1070 s
COc1ccccc1CC(=O)NC1CCN(c2cc(-c3ccccc3)[nH]n2)C1 (stereo unspecified)	688 s
CCCn1nc(CNC(=O)c2sc(C)nc2C)c2ccccc21	776 s
CCc1nc(NCc2cccnc2)ncc1C(=O)O	560 s
O=C(c1ccc(N2CCOCC2)nn1)N1CCN(c2cccc(C(F)(F)F)c2)CC1	779 s
O=C(Cc1ccc(NS(=O)(=O)c2ccc3c(c2)OCCO3)cc1)NC1CC1	678 s
CC(=O)N1CCCc2ccc(NC(=O)COc3ccc(F)cc3)cc21	798 s
CCc1cc(=O)n(CC(=O)NC2CCCC2)c(N2CCOCC2)n1	647 s
CCN1C(=O)c2cccnc2Sc2cc(NC(=O)c3ccc(F)cc3Cl)ccc21	852 s
CN(CCNC(=O)CN(c1ccccc1)S(=O)(=O)N(C)C)Cc1ccccc1	656 s
O=C(NCc1ccc(Cl)cc1)c1cn2c(n1)CCCC2	621 s

SMILES	RP-LC retention time
CC(=O)Nc1ccc(-n2cnc(C(=O)N3CCN(C4CCCCC4)CC3)c2)nc1	566 s
CSc1ncccc1C(=O)NCc1nn(C(C)C)c2ccccc12	830 s
CCCNS(=O)(=O)c1cc(-c2c(CC)noc2NC(C)=O)ccc1C	747 s
CCC(C)N(CCNC(=O)Cc1noc2ccccc12)Cc1ccco1 (stereo unspecified)	664 s
O=C1NC(Cc2c[nH]c3ccccc23)C(=O)N1c1cccc(Cl)c1 (stereo unspecified)	790 s
CCOC(=O)C(C)Sc1ccc2nnc(CCNC(=O)c3ccc(OC)cc3)n2n1 (stereo unspecified)	647 s
O=C(CCCN1C(=O)c2cccnc2Oc2ccccc21)N1CCN(c2ccccn2)CC1	605 s
COc1ccc(NC(=O)N2CC(c3nc(C(C)C)nn3C)C2)c(OC)c1	667 s
COc1ccc(-c2ccnc3nc(CCc4ccccc4)nn23)cc1OC	879 s
COC(=O)c1ccc(NC(=O)CSc2nnc(C)c3cnn(-c4ccccc4)c23)cc1	705 s
CCCN1C(=O)COc2ccc(-c3csc(NC(=O)CCc4ccccc4)n3)cc21	1070 s
Cc1c2c(nn1-c1ccc(SCc3ccccc3F)nn1)CCC2	1270 s
COc1ccc(NC(=O)Cn2cccc2-c2nnc(-c3ccccc3)o2)cc1Cl	997 s
CC1Oc2ccc(S(=O)(=O)N3CCC(C(=O)Nc4ccc(Cl)cc4)CC3)cc2NC1=O (stereo unspecified)	778 s
Cc1ccc(S(=O)(=O)NCC2CCN(C(=O)Oc3ccccc3)CC2)s1	576 s
COc1cccc(C(=O)N2CCC3(CC2)NC(=O)c2cc(Cl)ccc2N3C)c1	800 s
CNC(=O)c1cc(C)nc2ccc(F)cc12	580 s
COc1ccc(-c2nnc(-c3ccc(Cl)c(S(=O)(=O)N4CCC(C)CC4)c3)o2)cc1OC	1180 s
CC(C)n1c(=O)oc2cc(-c3noc(CNC(=O)Cc4ccccc4)n3)ccc21	842 s
O=C(c1cc(-c2cccc(F)c2)ns1)N1CCCC1	924 s
COc1ccc(-c2c(C)noc2NC(C)=O)cc1S(=O)(=O)Nc1c(C)cc(C)cc1C	838 s
Cc1cnc(C2CCC2)n1CC1CCN(C(=O)Nc2ccc3c(c2)OCCO3)C1 (stereo unspecified)	609 s
COc1cc(NC(=O)CSC2CCc3ccccc3NC2=O)cc(OC)c1OC (stereo unspecified)	719 s

SMILES	RP-LC retention time
CCOC(=O)Cc1ccc(NC(=O)NC2CCN(c3ccc(F)c(C)c3)C2=O)cc1 (stereo unspecified)	853 s
CCn1c(=O)c(C(=O)N2CCN(C3CCCCC3)CC2)nc2cccnc21	520 s
Cc1ccc(-c2nnc(-c3nc(NCCC4=CCCCC4)c4ccccc4n3)o2)cc1	1300 s
CSc1ccc(CNC(=O)CSc2cc(N3CCCCC3)ncn2)cc1	767 s
O=C(Nc1ccc2c(c1)OCCO2)N1c2ccccc2CC1c1nc(C2CC2)no1 (stereo unspecified)	966 s
COc1ccc(OC)c(S(=O)(=O)N2C[C@@H](F)C[C@H]2C(=O)N2CCOCC2)c1	906 s
O=C(Cc1nnc2c(-c3nc(C4CC4)no3)cccn12)NC1CCCCCC1	720 s
CC(C)(C)NC(=O)Cc1cccn1-c1cccc(Cl)c1	1010 s
CSc1cccc(NC(=O)N2CCN(C3=CC4=NCC(C)N4C=N3)CC2)c1 (stereo unspecified)	650 s
COc1cccc(-c2nc3cnccn3c2NCCC(=O)NC2CCCCC2)c1	710 s
CCCNC(=O)C1CCCN(c2nnc(C)c3c(C)n(-c4ccc(Cl)cc4)nc23)C1 (stereo unspecified)	693 s
COc1ccc(OC)c(CNC(=O)CCc2c(-c3ccc(Br)cc3)nc3ccccn23)c1	693 s
CNC(=O)N1CCCC(c2cccc(C(=O)NCc3cccc(C(F)(F)F)c3)c2)C1 (stereo unspecified)	850 s
CCn1c(=O)c(NCCc2ccc(Cl)cc2)nc2ccncc21	596 s
CCC1CN(C(=O)N2CCC(C(=O)N3CCN(C(=O)c4ccco4)CC3)CC2)c2ccccc2O1 (stereo unspecified)	751 s
c1ccc(-c2nc3cc(-c4noc(-c5ccc6nc[nH]c6c5)n4)ccc3o2)cc1	888 s
O=C(Nc1cccc(OCc2nnc(-c3ccc(Cl)cc3)o2)c1)c1cccnc1	811 s
CS(=O)(=O)N[C@H]1C[C@@H]2C[C@H]1CN2C(=O)c1ccc(C(F)(F)F)cc1	571 s
CCOC(=O)c1ccc(NC(=O)CN2CCc3[nH]c4c(C)c(C)ccc4c(=O)c3C2)cc1	639 s
C=CCn1c(=O)c2ccccc2n(Cc2nc(-c3ccc(C)cc3)no2)c1=O	1070 s
C=CCN1C(=O)COc2ccc(-c3csc(NC(=O)c4ccco4)n3)cc21	882 s
Cc1ccc(N2CC(c3noc(-c4ccsc4)n3)CC2=O)cc1 (stereo unspecified)	932 s
